Data reported in US20240368106A1, “HYDROXY AND ALKOXY COUMARINS AS MODULATORS OF POLRMT” (Pretzel Therapeutics, Inc., priority 2021, published 2024).

Biological target: POLRMT (Homo sapiens (Human), UniProt O00411)
Assay: homogeneous TR-FRET assay of mitochondrial transcription (inhibition of POLRMT)
Type: biochemical
Conditions: 7.5 nM POLRMT, 15 nM TFB2M, 30 nM TFAM, 0.5 nM DNA template, 500 μM NTPs, 37° C., 60 minutes
Procedure: The inhibitory activity of the compounds of the present invention against POLRMT were determined by assays based on Bergbrede, T., et al., “An adaptable high-throughput technology enabling the identification of specific transcription modulators,” SLAC Discov., 22, 378-386 (2017).
The ability of some compounds of the present invention to inhibit POLRMT were determined in a homogeneous TR-FRET Assay using high-throughput screening in a 384-well plate format. This method is used to monitor the activity of mitochondrial transcription through measurement of its product, a 407 bp long RNA transcript. Detection of the product is facilitated by hybridization of two DNA-oligonucleotide probes to specific and adjacent sequences within the RNA product sequence. Upon annealing of the probes, two fluorophores are coupled directly to an acceptor nucleotide probe (ATT0647, 5′), or introduced via a coupled streptavidin with a biotinylated donor nucleotide probe (Europium cryptate) that is brought into sufficient proximity to serve as a fluorescence-donor-acceptor pair. Thus, a FRET signal at 665 nm is generated upon excitation at 340 nm.
Proteins used as transcription factors (POLRMT: NP_005026.3, TFAM: NP_003192.1, TFB2M: NP_071761.1) are diluted from their stocks to working concentrations of 1 μM, 20 μM and 4 μM respectively, in a dilution buffer containing 20 mM Tris-HCl (pH 8.0), 200 mM NaCl, 10% (v/v) glycerol, 1 mM Dithiothreitol (DTT), 0.5 mM EDTA.
DNA template is a pUC18 plasmid with the mitochondrial light strand promotor sequence (1-477) cloned between HindIII and BamHI sites. The DNA template is restriction linearized proximal to the promotor 3′-end (pUC-LSP). The reaction mixture (10 uL) containing 7.5 nM POLRMT, 15 nM of TFB2M, 30 nM of TFAM, 0.5 nM of DNA template and 500 μM nucleotide triphosphate mix (NTPs) in a reaction buffer (containing 10 mM Tris-HCl (pH 7.5), 10 mM MgCl2, 40 mM NaCl, 10 mM DTT, 0.005% (w/v) Tween-20, 160 units/ml Rnase inhibitor and 0.1 mg/mL BSA) are dispensed to compounds in microplates, using a Thermo Multidrop® dispenser, and incubated at 37° C. in a VWR INCU-Line incubator for 60 minutes after mixing. No nucleotide triphosphate mix is added to negative control samples. Microplates with compounds to be tested in the assay are prepared from 10 mM compound stocks in 100% DMSO, equal amounts of DMSO without any compound are added to positive control and negative control samples.
During the incubation, a mix of the detection reagents is prepared in a buffer such that the enzymatic reaction is terminated due to chelating of Mg-ions and increased ionic strength, containing 50 mM Tris-HCl (pH 7.5), 700 mM NaCl, 20 mM EDTA, and 0.010% (w/v) Tween-20. Europium-streptavidin is pre-incubated with a 200-fold molar excess of a random sequence oligonucleotide to block unspecific binding of oligo, for two hours at ambient temperature in the dark. Afterwards, the blocked Europium-streptavidin is kept on ice until use.
At the end of the enzymatic reaction time, 5 μL detection oligo mix in the detection buffer is added, and assay plates are mixed and kept at ambient temperature for one hour, protected from light. The concentration of the Acceptor nucleotide oligo (e.g., ATTO647N-5′-[…]-3′) and Donor nucleotide oligo (e.g., bio-5′-AACACATCTCT(-bio)GCCAAACCCCA-bio-3′) in each assay well is 1 nM, and 3 nM, respectively.
After incubation with oligo mix, 5 μL of pre-blocked Europium-streptavidin reagent is dispensed to each assay well, assay plates are again mixed and kept at ambient temperature for one hour, protected from light.
The generated signal is measured with BMG Pherastar microtiter plate reader with a TRF light unit, using excitation at 340 nm, an integration time of 200 μs, and a delay time of 100 μs, before detection at 620 nm and 665 nm. The ratio of donor- and acceptor-fluorescence is used as a measure of the generated transcript product (i.e. enzymatic activity).

Sequence of POLRMT (O00411 42-1230): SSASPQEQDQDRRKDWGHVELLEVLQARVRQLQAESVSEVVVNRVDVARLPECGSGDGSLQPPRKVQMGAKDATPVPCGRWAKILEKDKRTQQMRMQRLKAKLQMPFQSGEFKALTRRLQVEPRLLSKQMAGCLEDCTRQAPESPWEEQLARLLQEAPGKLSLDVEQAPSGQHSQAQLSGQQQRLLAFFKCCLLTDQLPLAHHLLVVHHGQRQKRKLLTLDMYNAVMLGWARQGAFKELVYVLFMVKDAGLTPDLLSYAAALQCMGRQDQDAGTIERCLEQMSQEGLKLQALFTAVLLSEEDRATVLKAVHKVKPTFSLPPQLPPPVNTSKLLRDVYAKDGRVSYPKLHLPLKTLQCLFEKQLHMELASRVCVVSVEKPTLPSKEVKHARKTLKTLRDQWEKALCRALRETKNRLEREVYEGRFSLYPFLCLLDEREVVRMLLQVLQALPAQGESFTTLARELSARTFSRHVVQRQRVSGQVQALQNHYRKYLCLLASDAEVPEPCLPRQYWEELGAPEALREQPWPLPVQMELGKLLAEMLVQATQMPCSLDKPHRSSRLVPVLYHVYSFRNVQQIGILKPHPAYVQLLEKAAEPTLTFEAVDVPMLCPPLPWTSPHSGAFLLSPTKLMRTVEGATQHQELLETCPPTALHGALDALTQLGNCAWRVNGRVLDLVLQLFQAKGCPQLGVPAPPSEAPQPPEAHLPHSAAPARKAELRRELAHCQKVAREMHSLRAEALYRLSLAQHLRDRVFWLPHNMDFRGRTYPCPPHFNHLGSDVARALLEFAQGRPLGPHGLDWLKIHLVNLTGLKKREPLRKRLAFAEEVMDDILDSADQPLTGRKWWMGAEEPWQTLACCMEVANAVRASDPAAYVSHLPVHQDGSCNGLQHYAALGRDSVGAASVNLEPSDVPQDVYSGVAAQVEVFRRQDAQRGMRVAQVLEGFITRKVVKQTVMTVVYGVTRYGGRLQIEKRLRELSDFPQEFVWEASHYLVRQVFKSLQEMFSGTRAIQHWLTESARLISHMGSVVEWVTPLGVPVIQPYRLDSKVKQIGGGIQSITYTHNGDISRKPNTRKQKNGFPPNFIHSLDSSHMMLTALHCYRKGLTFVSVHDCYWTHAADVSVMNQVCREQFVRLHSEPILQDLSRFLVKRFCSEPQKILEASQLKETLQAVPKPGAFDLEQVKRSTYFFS

Question: “2-((4-(2-chloro-4-fluorophenyl)-2-oxo-2H-chromen-7-yl)oxy)-3-methoxypropanamide [Example 76]” was tested. Which IC50 did it give?
Answer: 44000 nM

Question: Which IC50 does the source give for “2-((4-(2-chloro-4-fluorophenyl)-2-oxo-2H-chromen-7-yl)oxy)-3-methoxypropanamide [Example 77]” here?
Answer: 2000 nM

Question: Which IC50 does the source give for `COCC(C)Oc1ccc2c(-c3ccccc3C)cc(=O)oc2c1` (racemic) [Example 25, 7-((1-methoxypropan-2-yl)oxy)-4-(o-tolyl)-2H-chromen-2-one] here?
Answer: 300 nM

Question: Which IC50 does the source give for `COCC(C)Oc1ccc2c(-c3ccccc3C)cc(=O)oc2c1` (single isomer, unassigned) [Example 26, 7-((1-methoxypropan-2-yl)oxy)-4-(o-tolyl)-2H-chromen-2-one] here?
Answer: 300 nM

Question: `COCC(C)Oc1ccc2c(-c3ccccc3C)cc(=O)oc2c1` (single isomer, unassigned) [Example 27, 7-((1-methoxypropan-2-yl)oxy)-4-(o-tolyl)-2H-chromen-2-one] was tested. Which IC50 did it give?
Answer: 600 nM

Question: `Cc1ccccc1-c1cc(=O)oc2cc(OCC3CCCCO3)ccc12` (single isomer, unassigned) [Example 39, 7-((tetrahydro-2H-pyran-2-yl)methoxy)-4-(o-tolyl)-2H-chromen-2-one] was tested. Which IC50 did it give?
Answer: 900 nM

Question: With `Cc1ccccc1-c1cc(=O)oc2cc(OCC3CCCCO3)ccc12` (single isomer, unassigned) [Example 40, 7-((tetrahydro-2H-pyran-2-yl)methoxy)-4-(o-tolyl)-2H-chromen-2-one] as the molecule, how does the IC50 read?
Answer: 3000 nM

Question: Which IC50 does the source give for `Cc1ccccc1-c1cc(=O)oc2cc(OC(C)C#N)ccc12` (single isomer, unassigned) [Example 42, 2-((2-oxo-4-(o-tolyl)-2H-chromen-7-yl)oxy)propanenitrile] here?
Answer: 50 nM

Question: For `Cc1ccccc1-c1cc(=O)oc2cc(OC(C)C#N)ccc12` (single isomer, unassigned) [Example 43, 2-((2-oxo-4-(o-tolyl)-2H-chromen-7-yl)oxy)propanenitrile], which IC50 is on record?
Answer: 1000 nM

Question: `CCC(COC)Oc1ccc2c(-c3ccccc3C)cc(=O)oc2c1` (single isomer, unassigned) [Example 45, 7-((1-methoxybutan-2-yl)oxy)-4-(o-tolyl)-2H-chromen-2-one] was tested. Which IC50 did it give?
Answer: 100 nM

Question: With `CCC(COC)Oc1ccc2c(-c3ccccc3C)cc(=O)oc2c1` (single isomer, unassigned) [Example 46, 7-((1-methoxybutan-2-yl)oxy)-4-(o-tolyl)-2H-chromen-2-one] as the molecule, how does the IC50 read?
Answer: 300 nM

Question: For `Cc1ccccc1-c1cc(=O)oc2cc(OC3CCCOC3)ccc12` (single isomer, unassigned) [Example 48, 7-((tetrahydro-2H-pyran-3-yl)oxy)-4-(o-tolyl)-2H-chromen-2-one], which IC50 is on record?
Answer: 3000 nM

Question: `Cc1ccccc1-c1cc(=O)oc2cc(OC3CCCOC3)ccc12` (single isomer, unassigned) [Example 49, 7-((tetrahydro-2H-pyran-3-yl)oxy)-4-(o-tolyl)-2H-chromen-2-one] was tested. Which IC50 did it give?
Answer: 1000 nM

Question: With `COCC(C)Oc1cc(C)c2c(-c3ccccc3C)cc(=O)oc2c1` (single isomer, unassigned) [Example 59, 7-((1-methoxypropan-2-yl)oxy)-5-methyl-4-(o-tolyl)-2H-chromen-2-one] as the molecule, how does the IC50 read?
Answer: 600 nM

Question: `COCC(C)Oc1cc(C)c2c(-c3ccccc3C)cc(=O)oc2c1` (single isomer, unassigned) [Example 60, 7-((1-methoxypropan-2-yl)oxy)-5-methyl-4-(o-tolyl)-2H-chromen-2-one] was tested. Which IC50 did it give?
Answer: 500 nM

Question: How did the IC50 turn out when `COCC(Oc1ccc2c(-c3ccc(F)cc3Cl)cc(=O)oc2c1)C(N)=O` (single isomer, unassigned) [Example 74, 2-((4-(2-chloro-4-fluorophenyl)-2-oxo-2H-chromen-7-yl)oxy)-3-methoxypropanamide] was run?
Answer: 13000 nM

Question: For `COCC(Oc1ccc2c(-c3ccc(F)cc3Cl)cc(=O)oc2c1)C(N)=O` (single isomer, unassigned) [Example 75, 2-((4-(2-chloro-4-fluorophenyl)-2-oxo-2H-chromen-7-yl)oxy)-3-methoxypropanamide], which IC50 is on record?
Answer: 2000 nM

Question: For `Cc1ccccc1-c1cc(=O)oc2cc(OC(CO)C(=O)N(C)C)ccc12` (single isomer, unassigned) [Example 78, 3-hydroxy-N,N-dimethyl-2-[4-(o-tolyl)-2-oxo-2H-chromen-7-yl]oxy-propanamide], which IC50 is on record?
Answer: 500 nM

Question: `Cc1ccccc1-c1cc(=O)oc2cc(OC(CO)C(=O)N(C)C)ccc12` (single isomer, unassigned) [Example 79, 3-hydroxy-N,N-dimethyl-2-[4-(o-tolyl)-2-oxo-2H-chromen-7-yl]oxy-propanamide] was tested. Which IC50 did it give?
Answer: 32000 nM

Question: How did the IC50 turn out when `CCNC(=O)C(COC)Oc1ccc2c(-c3ccccc3C)cc(=O)oc2c1` (single isomer, unassigned) [Example 80, N-ethyl-3-methoxy-2-((2-oxo-4-(o-tolyl)-2H-chromen-7-yl)oxy)propanamide] was run?
Answer: 15000 nM

Question: How did the IC50 turn out when `CCNC(=O)C(COC)Oc1ccc2c(-c3ccccc3C)cc(=O)oc2c1` (single isomer, unassigned) [Example 81, N-ethyl-3-methoxy-2-((2-oxo-4-(o-tolyl)-2H-chromen-7-yl)oxy)propanamide] was run?
Answer: 200 nM

Question: How did the IC50 turn out when `COCC(Oc1ccc2c(-c3ccccc3C)cc(=O)oc2c1)C(=O)NCC(F)(F)F` (single isomer, unassigned) [Example 82, 3-methoxy-2-((2-oxo-4-(o-tolyl)-2H-chromen-7-yl)oxy)-N-(2,2,2-trifluoroethyl)propanamide] was run?
Answer: 5000 nM

Question: `COCC(Oc1ccc2c(-c3ccccc3C)cc(=O)oc2c1)C(=O)NCC(F)(F)F` (single isomer, unassigned) [Example 83, 3-methoxy-2-((2-oxo-4-(o-tolyl)-2H-chromen-7-yl)oxy)-N-(2,2,2-trifluoroethyl)propanamide] was tested. Which IC50 did it give?
Answer: 200 nM

Question: `COCC(Oc1ccc2c(-c3ccc(F)cc3Cl)cc(=O)oc2c1)C(=O)N(C)C` (single isomer, unassigned) [Example 85, 2-((4-(2-chloro-4-fluorophenyl)-2-oxo-2H-chromen-7-yl)oxy)-3-methoxy-N,N-dimethylpropanamide] was tested. Which IC50 did it give?
Answer: 200 nM

Question: For `COCC(Oc1ccc2c(-c3ccc(F)cc3Cl)cc(=O)oc2c1)C(=O)N(C)C` (single isomer, unassigned) [Example 86, 2-((4-(2-chloro-4-fluorophenyl)-2-oxo-2H-chromen-7-yl)oxy)-3-methoxy-N,N-dimethylpropanamide], which IC50 is on record?
Answer: > 100000 nM

Question: `COCCNC(=O)C(COC)Oc1ccc2c(-c3ccccc3C)cc(=O)oc2c1` (single isomer, unassigned) [Example 87, 3-methoxy-N-(2-methoxyethyl)-2-((2-oxo-4-(o-tolyl)-2H-chromen-7-yl)oxy)propanamide] was tested. Which IC50 did it give?
Answer: 36000 nM

Question: For `COCCNC(=O)C(COC)Oc1ccc2c(-c3ccccc3C)cc(=O)oc2c1` (single isomer, unassigned) [Example 88, 3-methoxy-N-(2-methoxyethyl)-2-((2-oxo-4-(o-tolyl)-2H-chromen-7-yl)oxy)propanamide], which IC50 is on record?
Answer: 500 nM

Question: For `COCC(Oc1ccc2c(-c3ccccc3C)cc(=O)oc2c1)C(=O)N1CCC1` (single isomer, unassigned) [Example 89, 7-((1-(azetidin-1-yl)-3-methoxy-1-oxopropan-2-yl)oxy)-4-(o-tolyl)-2H-chromen-2-one], which IC50 is on record?
Answer: 200 nM

Question: With `COCC(Oc1ccc2c(-c3ccccc3C)cc(=O)oc2c1)C(=O)N1CCC1` (single isomer, unassigned) [Example 90, 7-((1-(azetidin-1-yl)-3-methoxy-1-oxopropan-2-yl)oxy)-4-(o-tolyl)-2H-chromen-2-one] as the molecule, how does the IC50 read?
Answer: 10000 nM
